Patent US20150150935A1, “[…] RECEPTOR AGONISTS FOR REDUCING PAIN AND INFLAMMATION” (CARA THERAPEUTICS, INC., priority 2012, published 2015)

Legend:
[1] = test system: patients undergoing a laparoscopic hysterectomy; assay: Phase 2 double-randomized placebo-controlled trial, CR845 dosed preoperatively and postoperatively, analgesic efficacy; format: in vivo, human
Experimental: This trial was a phase 2 multi-center, double-randomized, double-blind, placebo-controlled study was conducted to evaluate the analgesic efficacy and safety of intravenous CR845 dosed preoperatively and postoperatively in patients undergoing a laparoscopic hysterectomy. The trial was conducted under an investigational new drug application (IND) filed with the US Food and Drug Administration (FDA).
This phase 2 trial multi-center, double-randomized, double-blind, placebo-controlled study was conducted in 22 sites in the United States. All clinical procedures were approved by the relevant Institutional Review Board (IRB) in compliance with the applicable laws and regulations of the US. The study was initiated up to fourteen (14) days preoperatively and the in-hospital period was approximately twenty-four (24) hours for each patient and follow up was conducted within seven (7) days of discharge from the hospital.
The aim of this clinical trial was to evaluate the analgesic efficacy and safety of intravenous (IV) CR845 dosed preoperatively and postoperatively in female patients undergoing an elective laparoscopic hysterectomy. Secondary objectives were: 1. […] To evaluate the safety and tolerability of CR845.
This Phase 2, double-randomized, double-blind, placebo-controlled, parallel group study was conducted in approximately 200 female subjects, aged 18 to 65, across 22 US clinical sites. All subjects were administered a 15-minute IV infusion of 0.04 mg/kg CR845 or matching placebo before surgery in a 1:1 ratio. After surgery and upon reaching a pain intensity baseline level of at least 4 on a 10 cm visual analog scale (VAS), subjects were also re-randomized in a 1:1 ratio to receive a second IV infusion of either 0.04 mg/kg of CR845 or placebo. All doubly-randomized patients were thereby randomized to receive one of four possible treatment regimens: placebo-placebo, placebo-CR845, CR845-placebo, or CR845-CR845 (See FIG. 1). Pain intensity and pain relief scores were assessed up to 24 hours following the post-surgery infusion. Patients were allowed IV morphine for rescue at any point during the post-operative period, if requested.
The main efficacy endpoints were the total morphine consumption in the first 24 hours in patients who were re-randomized in the postoperative period and the efficacy of CR845 in reducing pain intensity including time specific VAS difference; summed pain intensity differences (SPIDs); area under the curve (AUC); pain relief; and the proportion of patients that were randomized to receive preoperative CR845 with no rescue medication postoperatively. The safety endpoints included the incidence of adverse events, physical examination, vital signs, 12-lead ECG, clinical laboratory evaluations, and cumulative fluid balance.

[2] = test system: patients post laparoscopic surgery; assay: Adverse events in subjects treated with CR845 or placebo, Phase IIb trial; format: in vivo, human; conditions: first 24 hours post laparoscopic surgery; all CR845 treated groups; FIG. 15
Experimental: Data are from a Phase IIb clinical trial in which subjects were administered CR845 or placebo. Generalized pruritus was distinguished from local pruritus events and shown separately in FIG. 15. Adverse events were lower in all CR845 treated patient groups as compared with placebo treated patients.

[3] = test system: women after laparoscopic-assisted hysterectomy; conditions: cited from earlier work

Question: Which results are given for CC(C)C[C@@H](NC(=O)[C@@H](Cc1ccccc1)NC(=O)[C@H](N)Cc1ccccc1)C(=O)N[C@H](CCCCN)C(=O)N1CCC(N)(C(=O)O)CC1 [CR845, D-Phe-D-Phe-D-Leu-D-Lys-[ω(4-aminopiperidine-4-carboxylic acid)]-OH]?
Answer: Reduction in summed pain intensity difference (SPID) pain score versus placebo only ([1]; CR845-CR845 (0.04 mg/kg IV before and after surgery), first 24 hours, FIG. 2): more than twice the reduction; Reduction in pain intensity difference (PID) pain score versus placebo only ([1]; CR845-CR845 (before and after surgery), over 24 hours, FIG. 3): twice the reduction; Pain relief as judged by PID score ([1]; CR845 before and after surgery, among four groups): highest pain intensity difference; Patients' overall evaluation of pain relief as excellent ([1]; CR845 pretreatment groups (CR845-CR845, CR845-Placebo, CR845-None)): highest percentage of patients; Reduction in pain SPID scores ([1]; one dose of CR845, before or after surgery, first 24 hours, FIG. 2): intermediate level of reduction; Reduction in pain PID scores ([1]; one dose of CR845, before or after surgery, first 24 hours, FIG. 3): intermediate level of reduction; Morphine self-administered by the patients ([1]; two doses of CR845, intervals 2-4, 4-12 and 12-24 hours post surgery, FIG. 4): least morphine; Adverse events (nausea, vomiting and pruritus) compared with placebo [2]: lower; Reduction of morphine use versus placebo ([3]; 0.04 mg/kg 15-minute IV infusion after surgery, first 16 hours post-infusion): 32%; Opioid side effects (vomiting, nausea and pruritis) ([3]; 0.04 mg/kg IV after surgery, versus placebo): significant reduction; Changes in clinical lab test results, vital signs, electrocardiograms, Ramsey sedation scale ([3]; 0.04 mg/kg IV after surgery): no significant changes; Reduction of pain intensity ([3]; administered after surgery): effective; Safety and tolerability ([3]; administered after surgery): safe and well tolerated; Tolerability in comparison to other known kappa agonists ([3]; single intravenous dose after surgery): better tolerated
